Patent US6514955B1, “Multi-faceted method to repress reproduction of latent viruses in humans and animals” (HIV Diagnostics, Inc., priority 1993, dated 2003)

What was measured:
NADPH oxidase = NADPH oxidase (Homo sapiens, UniProt P04839); details: cited from earlier work
[1] = cited from earlier work
hybridoma macrophages = test: Oxidant release in LPS or interferon activated hybridoma macrophages; format: cell-based
Source text: PMA activates the oxidative burst. The oxidant detected is the same oxidant seen in Kupfer liver cells and lung macrophages: peroxynitrite.

Chain of NADPH oxidase (P04839 2-570 limits assumed): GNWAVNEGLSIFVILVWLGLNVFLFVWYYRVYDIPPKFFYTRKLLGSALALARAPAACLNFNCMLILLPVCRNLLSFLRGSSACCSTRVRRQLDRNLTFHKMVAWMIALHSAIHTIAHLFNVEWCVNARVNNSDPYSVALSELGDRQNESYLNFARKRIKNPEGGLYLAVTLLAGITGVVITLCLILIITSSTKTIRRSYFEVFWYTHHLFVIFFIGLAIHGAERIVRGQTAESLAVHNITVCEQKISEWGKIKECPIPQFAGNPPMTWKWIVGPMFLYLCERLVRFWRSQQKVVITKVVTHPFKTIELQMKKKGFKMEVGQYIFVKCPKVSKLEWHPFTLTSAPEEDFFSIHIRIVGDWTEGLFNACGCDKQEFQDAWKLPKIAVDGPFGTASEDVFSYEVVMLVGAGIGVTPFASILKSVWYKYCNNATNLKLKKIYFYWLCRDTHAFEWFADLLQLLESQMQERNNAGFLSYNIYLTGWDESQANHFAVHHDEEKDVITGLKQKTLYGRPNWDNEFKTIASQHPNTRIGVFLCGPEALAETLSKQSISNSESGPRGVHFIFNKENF
Chain of NADPH oxidase (P13498 2-195 partner limits assumed): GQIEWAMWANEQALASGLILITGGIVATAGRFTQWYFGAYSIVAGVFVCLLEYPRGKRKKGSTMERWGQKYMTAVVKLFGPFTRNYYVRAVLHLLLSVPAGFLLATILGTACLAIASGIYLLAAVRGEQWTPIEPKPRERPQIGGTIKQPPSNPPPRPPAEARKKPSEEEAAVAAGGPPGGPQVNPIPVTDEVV

SMILES: c1ccc2c(c1)[I+]c1ccccc1-2 [diphenylene iodonium]
- Concentration printed for NADPH oxidase inhibitor (NADPH oxidase): 15 nM

SMILES: CC(=O)N[C@@H](CS)C(=O)O [N-acetyl cysteine]
- Daily dose usable without toxic side effects ([1]; man, daily): Up to 40 mg per kilogram of body weight

SMILES: O=C1NC(C(=O)O)CS1 (stereo not shown) [2-oxo-4-thiazolidene carboxylic acid]
- Oral doses administered without toxicity ([1]; in vivo, po): 0.15 to 0.45 mmol/kg

SMILES: CCCCCCCCCCCCCC(=O)O[C@@H]1[C@@H](C)[C@@]2(O)[C@@H](C=C(CO)C[C@]3(O)C(=O)C(C)=C[C@@H]23)[C@@H]2C(C)(C)[C@]12OC(C)=O [phorbol myristate acetate]
- Stimulation of oxidant (peroxynitrite) produced (hybridoma macrophages): about 40 fold
